Results as given in patent publication US5093359A, “Primycin components and process for the separation of the antibiotic complex” (priority 1984, dated 1992).
Read-outs that look alike come from different tables or passages of the source.

Assays:
[1] = system: Staphylococcus aureus CCM.885.; assay: MIC, strain 1; type: cell-based
[2] = system: Staphylococcus aureus DSM.20231; assay: MIC, strain 2; type: cell-based
[3] = system: Staphylococcus aureus CCM.2317.; assay: MIC, strain 3; type: cell-based
[4] = system: Staphylococcus aureus CCM.2326.; assay: MIC, strain 4; type: cell-based
[5] = system: Staphylococcus aureus CCM.2514; assay: MIC, strain 5; type: cell-based
[6] = system: Staphylococcus aureus CCM.2515.; assay: MIC, strain 6; type: cell-based
[7] = system: Staphylococcus epidermidis CCM.2271; assay: MIC, strain 7; type: cell-based
[8] = system: Staphylococcus aureus Smith; assay: MIC, strain 8; type: cell-based
[9] = system: Streptococcus faecalis CCM.1875.; assay: MIC, strain 9; type: cell-based; conditions: Enterococcus faecalis
[10] = system: Streptococcus agalactiae CCM.5153.; assay: MIC, strain 10; type: cell-based
[11] = system: Streptococcus agalactiae CCM.5534.; assay: MIC, strain 11; type: cell-based
[12] = system: Streptococcus disgalactiae ATTC.9926; assay: MIC, strain 12; type: cell-based
[13] = system: Bacillus subtilis ATTC.6633.; assay: MIC, strain 13; type: cell-based
[14] = system: Bacillus cereus CCM.2010.; assay: MIC, strain 14; type: cell-based
[15] = system: Bacillus licheniformis CCM.2182.; assay: MIC, strain 15; type: cell-based
[16] = system: Bacillus licheniformis CCM.2205.; assay: MIC, strain 16; type: cell-based
[17] = system: Bacillus subtilis CCM.1718.; assay: MIC, strain 17; type: cell-based
[18] = system: Listeria monocytogenes CCM.5576.; assay: MIC, strain 18; type: cell-based
[19] = system: Micrococcus flavus ATCC.10240.; assay: MIC, strain 19; type: cell-based
[20] = system: Micrococcus luteus DSM.20030.; assay: MIC, strain 20; type: cell-based
[21] = system: Sporosarcina ureae DSM.317; assay: MIC, strain 21; conditions: DSM.317, 24 h
Procedure: (§1) The antimicrobial activity of the primycin complex and the components thereof is tested on different microorganism strains.
(§2) (Inoculation: 5 × 10^5 /ml, incubation at 37 C.° for

[22] = system: Pseudomonas aeruginosa CCM.1960.; assay: MIC, strain 22; conditions: 24 h
Procedure: as §1, §2

[23] = system: Pseudomonas fluorescens CCM.2115.; assay: MIC, strain 23; conditions: 24 h
Procedure: as §1, §2

[24] = system: Pseudomonas acidoverans CCM.283; assay: MIC, strain 24; conditions: CCM.283, 24 h
Procedure: as §1, §2

[25] = system: Proteus vulgaris CCM.1799.; assay: MIC, strain 25; conditions: 24 h
Procedure: as §1, §2

[26] = system: Shigella sonnei CCM.1373.; assay: MIC, strain 26; conditions: 24 h
Procedure: (§3) The table contains the MIC values (/μg/ml) measured on human pathogenic polyresistant strains.
as §1, §2

[27] = system: Salmonella typhimurium CCM.5445.; assay: MIC, strain 27; conditions: Salmonella enterica, 24 h
Procedure: as §3, §1, §2

[28] = system: Escherichia coli DSM.30038.; assay: MIC, strain 28; conditions: 24 h
Procedure: as §3, §1, §2

[29] = ATTC.9926, 24 h, strain 12, Table O, 24 hours
[30] = ATTC.9926, 25 h, strain 12, Tables I-XIII, 25 hours
[31] = strain 1, Table O, 24 hours, read-out: MIC
[32] = strain 1, Tables I-XIII, 25 hours, read-out: MIC
[33] = Staphylococcus aureus, DSM.20231, 24 h, strain 2, Table O, 24 hours, read-out: MIC
[34] = strain 3, Table O, 24 hours, read-out: MIC
[35] = strain 3, Tables I-XIII, 25 hours, read-out: MIC
[36] = strain 4, Table O, 24 hours, read-out: MIC
[37] = strain 4, Tables I-XIII, 25 hours, read-out: MIC
[38] = CCM.2514, strain 5, Table O, 24 hours, read-out: MIC
[39] = CCM.2514, strain 5, Tables I-XIII, 25 hours, read-out: MIC
[40] = strain 6, Table O, 24 hours, read-out: MIC
[41] = strain 6, Tables I-XIII, 25 hours, read-out: MIC
[42] = CCM.2271, strain 7, Table O, 24 hours, read-out: MIC
[43] = CCM.2271, strain 7, Tables I-XIII, 25 hours, read-out: MIC
[44] = strain 8, Table O, 24 hours, read-out: MIC
[45] = strain 8, Tables I-XIII, 25 hours, read-out: MIC
[46] = strain 9, Table O, 24 hours, read-out: MIC
[47] = strain 9, Tables I-XIII, 25 hours, read-out: MIC
[48] = strain 10, Table O, 24 hours, read-out: MIC
[49] = strain 10, Tables I-XIII, 25 hours, read-out: MIC
[50] = Streptococcus agalactiae, CCM.5534., 24 h, strain 11, Table O, 24 hours, read-out: MIC
[51] = Streptococcus agalactiae, CCM.5534., 25 h, strain 11, Tables I-XIII, 25 hours, read-out: MIC
[52] = 24 h, strain 13, Table O, 24 hours, read-out: MIC
[53] = 24 h, strain 14, Table O, 24 hours, read-out: MIC
[54] = strain 15, Table O, 24 hours, read-out: MIC
[55] = strain 15, Tables I-XIII, 25 hours, read-out: MIC
[56] = strain 16, Table O, 24 hours, read-out: MIC
[57] = strain 16, Tables I-XIII, 25 hours, read-out: MIC
[58] = 24 h, strain 17, Table O, 24 hours, read-out: MIC
[59] = strain 18, Table O, 24 hours, read-out: MIC
[60] = strain 18, Tables I-XIII, 25 hours, read-out: MIC
[61] = strain 19, Table O, 24 hours, read-out: MIC
[62] = strain 19, Tables I-XIII, 25 hours, read-out: MIC
[63] = strain 20, Table O, 24 hours, read-out: MIC
[64] = strain 20, Tables I-XIII, 25 hours, read-out: MIC

Measured: MIC

CCCCC1C(=O)OC(C(C)C(O)CCCNC(=N)N)C(C)C=C(C)CCCCC(O)CC(O)CC(O)CC(O)CC(O)C(OC2OC(CO)C(O)C2O)C=C(C)C(O)CCCC(O)CCCC(O)CCC(C)C1O (stereo not drawn) [A1, chinopricin]
0.5 µg/mL: [18]; 24 h | [18]; 25 h
0.075 µg/mL: [19]; 24 h | [19]; 25 h
1 µg/mL: [11]; Streptococcus agalactiae, CCM.5534., 24 h | [11]; Streptococcus agalactiae, CCM.5534., 25 h
0.025 µg/mL: [21]
0.75 µg/mL: [7]; CCM.2271, 24 h | [7]; CCM.2271, 25 h | [10]; 24 h | [10]; 25 h
25 µg/mL: [22] | [23] | [24]
0.25 µg/mL: [1]; 24 h | [1]; 25 h | [3]; 24 h | [3]; 25 h | [4]; 24 h | [4]; 25 h | [5]; CCM.2514, 24 h | [5]; CCM.2514, 25 h | [6]; 24 h | [6]; 25 h | [8]; 24 h | [8]; 25 h | [13]; 24 h | [13]; 25 h | [14]; 24 h | [14]; 25 h | [15]; 24 h | [15]; 25 h | [16]; 24 h | [16]; 25 h | [17]; 24 h | [17]; 25 h
50 µg/mL: [25] | [26] | [27] | [28]
2.5 µg/mL: [9]; 24 h | [9]; 25 h | [12]; [29] | [12]; [30]
0.05 µg/mL: [2]; Staphylococcus aureus, DSM.20231, 24 h | [2]; Staphylococcus aureus, DSM.20231, 25 h | [20]; 24 h | [20]; 25 h

CCCCC1C(=O)OC(C(C)C(O)CCCNC(=N)N)C(C)C=C(C)CCCCC(O)CC(O)CC(O)CC(O)CC(O)CC=C(C)C(O)CCCC(O)CCCC(O)CCC(C)C1O (stereo not drawn) [B1, hydropricin]
0.25 µg/mL: [4]; [36] | [4]; [37] | [7]; [42] | [7]; [43] | [14]; [53] | [15]; [54] | [15]; [55] | [16]; [56] | [16]; [57] | [17]; [58] | [17]; 25 h, strain 17, Tables I-XIII, 25 hours, read-out: MIC | [18]; [59] | [18]; [60]
50 µg/mL: [25] | [26] | [27] | [28]
2.5 µg/mL: [9]; [46] | [9]; [47] | [12]; [29]
25 µg/mL: [22] | [23] | [24]
0.075 µg/mL: [20]; [63] | [20]; [64]
0.1 µg/mL: [2]; [33] | [3]; [34] | [3]; [35] | [5]; [38] | [5]; [39] | [6]; [40] | [6]; [41] | [13]; [52]
1 µg/mL: [11]; [50] | [11]; [51]
0.5 µg/mL: [1]; [31] | [1]; [32] | [8]; [44] | [8]; [45] | [10]; [48] | [10]; [49]
0.05 µg/mL: [19]; [61] | [19]; [62]
0.025 µg/mL: [21]

CCCCC1C(=O)OC(C(C)C(O)CCCNC(=N)N)C(C)C=C(C)CCCCC(O)CC(O)CC(O)CC(O)CC(O)C(O)C=C(C)C(O)CCCC(O)CCCC(O)CCC(C)C1O (stereo not drawn) [C1, oxypricin]
0.25 µg/mL: [11]; [50] | [11]; [51]
50 µg/mL: [25] | [26] | [27] | [28]
0.75 µg/mL: [9]; [46] | [9]; [47]
0.075 µg/mL: [1]; [31] | [1]; [32] | [10]; [48] | [10]; [49] | [18]; [59] | [18]; [60]
0.2 µg/mL: [11]; strain 11, Tables I-XIII, 25 hours
0.05 µg/mL: [2]; [33] | [2]; Staphylococcus aureus, DSM.20231, 25 h, strain 2, Tables I-XIII, 25 hours, read-out: MIC | [3]; [34] | [3]; [35] | [4]; [36] | [4]; [37] | [5]; [38] | [5]; [39] | [8]; [44] | [8]; [45] | [17]; [58]
0.5 µg/mL: [12]; [29] | [12]; [30]
25 µg/mL: [22] | [23] | [24]
0.1 µg/mL: [2]; strain 2, Tables I-XIII, 25 hours
0.01 µg/mL: [19]; [61] | [19]; [62] | [20]; [63] | [20]; [64] | [21]
0.025 µg/mL: [6]; [40] | [6]; [41] | [7]; [42] | [7]; [43] | [13]; [52] | [13]; 25 h, strain 13, Tables I-XIII, 25 hours, read-out: MIC | [14]; [53] | [14]; 25 h, strain 14, Tables I-XIII, 25 hours, read-out: MIC | [15]; [54] | [15]; [55] | [16]; [56] | [16]; [57]
